From patent US5538968A, “Geneserine derivatives processes as cholinesterase inhibitors” (priority 1991, dated 1996)
Where a name gives a salt, the structure may show the parent alone.

Tested on: acetylcholinesterase (AchE) in the brain
Assay: Time course of inhibition of brain acetylcholinesterase (AchE) in the rat after s.c. administration (Ellman acetylthiocholine method, ex vivo)
Set-up: species or system rat (male Crl:CD (SD) BR)
Conditions: for Time of peak effect on brain AchE: at doses producing effects comparable to 9 mg/kg CHF 2060
Method: 1. Acetylcholinesterase inhibition
The time course of inhibition of acetylcholinesterase (AchE) in the brain was assessed in male Crl:CD (SD) BR rats (Charles River Italia), weighing between 150-250 g.
The test substances were administered by s.c. route, dissolved in 2 ml/kg of sterile saline. 9 animals/group/time were used.
Controls received the vehicle only.
At various intervals (10-60-120-240 min) after administration the rats were sacrificed by decapitation and the brains were rapidly removed, weighed and immediately placed in 1 ml of phosphate buffer 0.1M, pH 8.0, added with 1% Triton 100 (Merck).
After homogenization and centrifugation at 19943 g for 15 min at 4° C. the surnatant was separated and used for the determination of AchE activity according to the acetyltiocholine method described by Ellmann (Ellman G. L. et al., Biochem. Pharmacol. 7, 88, 1961).
The activity concentrations obtained (U/l surnatant) were individually corrected for the brain weight.

Compound: CCCCCCCNC(=O)Oc1ccc2c(c1)[C@]1(C)CCN(C)[C@@H]1N2C [Heptyl physostigmine tartrate]
- AUC 0-4 h of inhibition of brain acetylcholinesterase (0.3 mg/kg s.c.): 94 % inib. hr
- AUC 0-4 h of inhibition of brain acetylcholinesterase (1 mg/kg s.c.): 178 % inib. hr
- Max % inhib. of brain acetylcholinesterase (1 mg/kg s.c.): 54%
- T max (time of the maximal inhibition) (1 mg/kg s.c.): 1 h
- Factor of reduction of effect between 120 and 240 min (1 mg/kg s.c., 120 to 240 min): 1.4
- Brain acetylcholinesterase activity, U/1 surn. (1 mg/kg s.c., 10 min): 2246 ± 115 U/1 surn.
- Brain acetylcholinesterase % inhib. (1 mg/kg s.c., 10 min, ** P < 0.01): 29%
- Brain acetylcholinesterase activity, U/1 surn. (1 mg/kg s.c., 60 min): 1166 ± 85 U/1 surn.
- Brain acetylcholinesterase % inhib. (1 mg/kg s.c., 60 min, ** P < 0.01): 54%
- Brain acetylcholinesterase activity, U/1 surn. (1 mg/kg s.c., 120 min): 1506 ± 115 U/1 surn.
- Brain acetylcholinesterase % inhib. (1 mg/kg s.c., 120 min, ** P < 0.01): 52%
- Brain acetylcholinesterase activity, U/1 surn. (1 mg/kg s.c., 240 min): 1867 ± 52 U/1 surn.
- Brain acetylcholinesterase % inhib. (1 mg/kg s.c., 240 min, ** P < 0.01): 36%

Compound: CNC(=O)Oc1ccc2c(c1)C1(C)CCN(C)OC1N2C (stereo not drawn) [Geneserine tartrate]
- AUC 0-4 h of inhibition of brain acetylcholinesterase (3 mg/kg s.c.): 133 % inib. hr
- Max % inhib. of brain acetylcholinesterase (3 mg/kg s.c.): 53-57%
- T max (time of the maximal inhibition) (3 mg/kg s.c.): 0.167 to 1 h
- Brain acetylcholinesterase activity, U/1 surn. (3 mg/kg s.c., 10 min): 1447 ± 100 U/1 surn.
- Brain acetylcholinesterase % inhib. (3 mg/kg s.c., 10 min, ** P < 0.01): 53%
- Brain acetylcholinesterase activity, U/1 surn. (3 mg/kg s.c., 60 min): 1231 ± 86 U/1 surn.
- Brain acetylcholinesterase % inhib. (3 mg/kg s.c., 60 min, ** P < 0.01): 57%
- Brain acetylcholinesterase activity, U/1 surn. (3 mg/kg s.c., 120 min): 2162 ± 134 U/1 surn.
- Brain acetylcholinesterase % inhib. (3 mg/kg s.c., 120 min, ** P < 0.01): 28%
- Brain acetylcholinesterase % inhib. (3 mg/kg s.c., 240 min): 12%
- Brain acetylcholinesterase activity, U/1 surn. (3 mg/kg s.c., 240 min): 2139 ± 208 U/1 surn.
- Factor of reduction of effect 120 min. after the treatment (s.c., 120 min vs peak): 1.5-2
- Effect on brain AchE after 240 min. (s.c.): disappears after 240 min
- Time of peak effect on brain AchE (s.c.): 10 to 60 min
- Onset of effect compared with CHF 2060 (s.c., vs 9 mg/kg CHF 2060, comparable AUC and maximum inhibition): more rapid effect

Compound: CCCCCCCNC(=O)Oc1ccc2c(c1)C1(C)CCN(C)OC1N2C [CHF 2060, N-heptyl-geneserine L-tartrate]
- AUC 0-4 h of inhibition of brain acetylcholinesterase (9 mg/kg s.c.): 127 % inib. hr
- Max % inhib. of brain acetylcholinesterase (9 mg/kg s.c.): 45%
- T max (time of the maximal inhibition) (9 mg/kg s.c.): ≥ 4 h
- Brain acetylcholinesterase % inhib. (9 mg/kg s.c., 10 min): 11%
- Brain acetylcholinesterase activity, U/1 surn. (9 mg/kg s.c., 10 min): 3094 ± 197 U/1 surn.
- Brain acetylcholinesterase activity, U/1 surn. (9 mg/kg s.c., 60 min): 2294 ± 150 U/1 surn.
- Brain acetylcholinesterase % inhib. (9 mg/kg s.c., 60 min, ** P < 0.01): 29%
- Brain acetylcholinesterase activity, U/1 surn. (9 mg/kg s.c., 120 min): 2205 ± 171 U/1 surn.
- Brain acetylcholinesterase % inhib. (9 mg/kg s.c., 120 min, ** P < 0.01): 33%
- Brain acetylcholinesterase activity, U/1 surn. (9 mg/kg s.c., 240 min): 1565 ± 80 U/1 surn.
- Brain acetylcholinesterase % inhib. (9 mg/kg s.c., 240 min, ** P < 0.01): 45%
- AUC 0-4 h of inhibition of brain acetylcholinesterase (27 mg/kg s.c.): 190 % inib. hr
- Max % inhib. of brain acetylcholinesterase (27 mg/kg s.c.): 68%
- T max (time of the maximal inhibition) (27 mg/kg s.c.): ≥ 4 h
- Factor of increase of effect between 120 and 240 min (27 mg/kg s.c., 120 to 240 min): 1.4
- Brain acetylcholinesterase % inhib. (27 mg/kg s.c., 10 min): 12%
- Brain acetylcholinesterase activity, U/1 surn. (27 mg/kg s.c., 10 min): 3070 ± 117 U/1 surn.
- Brain acetylcholinesterase activity, U/1 surn. (27 mg/kg s.c., 60 min): 1782 ± 164 U/1 surn.
- Brain acetylcholinesterase % inhib. (27 mg/kg s.c., 60 min, ** P < 0.01): 45%
- Brain acetylcholinesterase activity, U/1 surn. (27 mg/kg s.c., 120 min): 1629 ± 38 U/1 surn.
- Brain acetylcholinesterase % inhib. (27 mg/kg s.c., 120 min, ** P < 0.01): 50%
- Brain acetylcholinesterase activity, U/1 surn. (27 mg/kg s.c., 240 min): 914 ± 26 U/1 surn.
- Brain acetylcholinesterase % inhib. (27 mg/kg s.c., 240 min, ** P < 0.01): 68%
- Inhibition of brain AchE (qualitative) (s.c.): long-lasting inhibitor of brain AchE
- Course of effect during the 4 hrs following the treatment (s.c., 0-4 hrs): increase gradually during the 4 hrs following the treatment
- Duration of action compared with Heptyl physostigmine tartrate (s.c., 27 mg/kg vs 1 mg/kg HPYS, similar AUC): more sustained action
- Significant inhibition of brain AchE (s.c., 1 hr after administration (9 and 27 mg/kg), P<0,001): 29-45%
- Factor of increase of effect within 4 hrs in respect to the first hour (s.c., 4 hrs vs 1 hr (9 and 27 mg/kg)): 1.5-1.6

Compound: CNC(=O)Oc1ccc2c(c1)[C@]1(C)CCN(C)[C@@H]1N2C [Physostigmine]
- AUC 0-4 h of inhibition of brain acetylcholinesterase (0.4 mg/kg s.c.): 135 % inib. hr
- Brain acetylcholinesterase activity, U/1 surn. (0.4 mg/kg s.c., 10 min): 1368 ± 125 U/1 surn.
- Brain acetylcholinesterase activity, U/1 surn. (0.4 mg/kg s.c., 60 min): 1483 ± 148 U/1 surn.
- Brain acetylcholinesterase activity, U/1 surn. (0.4 mg/kg s.c., 120 min): 1829 ± 94 U/1 surn.
- Brain acetylcholinesterase activity, U/1 surn. (0.4 mg/kg s.c., 240 min): 2234 ± 151 U/1 surn.
- Effect on brain AchE after 240 min. (s.c.): disappears after 240 min
- Time of peak effect on brain AchE (s.c.): 10 to 60 min
